Assay results as given in ChEMBL document CHEMBL1201862, “PubChem BioAssay data set” (2004).
The source made the active and inactive calls.

How the values were obtained:
[1] = target: T1, E3 ubiquitin-protein ligase XIAP (Homo sapiens, UniProt P98170); assay: Counter Screen using XIAP-Bir3 for Chemical Antagonists of Bir1/2 domains of IAP-family anti-apoptotic proteins. [Related pubchem assays (depositor defined):AID1018, AID1449, AID1514, AID1638, AID1749, AID1750, AID488957, AID488963]
[2] = target: T1, E3 ubiquitin-protein ligase XIAP; assay: small molecules displacing peptide from XIAP – biochemical, IAP family, fluorescence polarization (AID 1018); assay type: functional
[3] = Trypanosoma cruzi growth suppression in host cells – NIH3T3 host cells, beta-gal luminescence, confirmation (AID 2044); assay type: functional, cell-based;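 note: intracellular parasites grown in NIH/3T3 mouse fibroblasts as host cells; luminescent beta-galactosidase reporter signal from transgenic T. cruzi replicating inside host cells; inhibitors lower the luminescence signal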
[4] = NIH3T3 cell viability loss – ATP luminescence, mouse fibroblasts, counter-screen, dose response (AID 2010); assay type: functional, cell-based;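 note: cells exposed to compound for about 90 hours before reading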
HEK293 = assay: cells; assay type: functional, cell-based; details: Homo sapiens
[5] = target: T2, Nuclear receptor subfamily 0 group B member 1 (Homo sapiens, UniProt P51843); assay: Luminescence-based cell-based high throughput dose response assay for inhibitors of the orphan nuclear receptor subfamily 0, group B, member 1 (DAX1; NR0B1). [Related pubchem assays (depositor defined):AID504766, AID504790]; assay type: functional
T2 sequence (P51843 whole entry): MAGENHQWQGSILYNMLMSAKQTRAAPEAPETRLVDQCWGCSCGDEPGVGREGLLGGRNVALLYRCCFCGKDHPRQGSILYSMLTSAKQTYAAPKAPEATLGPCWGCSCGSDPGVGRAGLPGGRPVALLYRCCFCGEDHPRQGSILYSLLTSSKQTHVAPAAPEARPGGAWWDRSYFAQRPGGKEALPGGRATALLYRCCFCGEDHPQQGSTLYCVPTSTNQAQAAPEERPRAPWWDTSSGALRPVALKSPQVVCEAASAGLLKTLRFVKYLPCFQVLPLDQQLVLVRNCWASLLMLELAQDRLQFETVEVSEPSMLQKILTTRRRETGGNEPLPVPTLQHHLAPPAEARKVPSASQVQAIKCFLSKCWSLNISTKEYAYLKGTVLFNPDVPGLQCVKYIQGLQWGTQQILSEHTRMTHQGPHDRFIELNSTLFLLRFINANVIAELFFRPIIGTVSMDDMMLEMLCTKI

[6] = target: G-protein coupled receptor 35 (Homo sapiens, UniProt Q9HC97); assay: inhibition of zaprinast-stimulated GPR35 beta-arrestin translocation – imaging, U2OS, beta-arrestin-GFP, zaprinast agonist, primary screen (AID 2058); assay type: functional;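 note: antagonist potency meaning inhibition of agonist-induced arrestin redistribution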
Sequence of G-protein coupled receptor 35 (Q9HC97 whole entry): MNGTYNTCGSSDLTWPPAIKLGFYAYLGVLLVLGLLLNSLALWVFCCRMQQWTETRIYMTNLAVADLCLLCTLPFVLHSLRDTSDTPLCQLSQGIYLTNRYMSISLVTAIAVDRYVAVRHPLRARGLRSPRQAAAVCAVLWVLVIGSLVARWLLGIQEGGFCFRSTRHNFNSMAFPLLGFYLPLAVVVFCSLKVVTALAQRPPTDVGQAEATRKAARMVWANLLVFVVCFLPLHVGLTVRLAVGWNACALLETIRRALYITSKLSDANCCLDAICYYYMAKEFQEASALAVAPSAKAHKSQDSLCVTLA

[7] = target: T3, C-C chemokine receptor type 6 (Homo sapiens, UniProt P51684); assay: antagonism of CCR6 beta-arrestin recruitment – cell-based, luminescent beta-arrestin readout, dose response (AID 504728); assay type: functional
T3 sequence (P51684 whole entry): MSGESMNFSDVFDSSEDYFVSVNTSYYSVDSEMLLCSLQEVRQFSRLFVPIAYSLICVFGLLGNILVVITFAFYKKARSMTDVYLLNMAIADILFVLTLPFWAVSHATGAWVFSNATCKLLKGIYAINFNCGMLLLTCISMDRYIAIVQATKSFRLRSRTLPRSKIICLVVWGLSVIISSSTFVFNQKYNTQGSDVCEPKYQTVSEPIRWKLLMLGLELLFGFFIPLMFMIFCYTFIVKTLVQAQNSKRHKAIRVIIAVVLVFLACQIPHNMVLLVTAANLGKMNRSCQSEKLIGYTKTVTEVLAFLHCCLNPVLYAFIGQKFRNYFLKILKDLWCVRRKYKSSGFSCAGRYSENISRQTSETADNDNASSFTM

Beta-galactosidase = Beta-galactosidase (Escherichia coli, UniProt Q8VNN2); assay: detection-enzyme interference by beta-gal modulators – biochemical, E. coli enzyme, set 3, artefact control for CCR6 antagonist project, dose response (AID 504712); assay type: functional
Sequence of Beta-galactosidase (Q8VNN2 whole entry): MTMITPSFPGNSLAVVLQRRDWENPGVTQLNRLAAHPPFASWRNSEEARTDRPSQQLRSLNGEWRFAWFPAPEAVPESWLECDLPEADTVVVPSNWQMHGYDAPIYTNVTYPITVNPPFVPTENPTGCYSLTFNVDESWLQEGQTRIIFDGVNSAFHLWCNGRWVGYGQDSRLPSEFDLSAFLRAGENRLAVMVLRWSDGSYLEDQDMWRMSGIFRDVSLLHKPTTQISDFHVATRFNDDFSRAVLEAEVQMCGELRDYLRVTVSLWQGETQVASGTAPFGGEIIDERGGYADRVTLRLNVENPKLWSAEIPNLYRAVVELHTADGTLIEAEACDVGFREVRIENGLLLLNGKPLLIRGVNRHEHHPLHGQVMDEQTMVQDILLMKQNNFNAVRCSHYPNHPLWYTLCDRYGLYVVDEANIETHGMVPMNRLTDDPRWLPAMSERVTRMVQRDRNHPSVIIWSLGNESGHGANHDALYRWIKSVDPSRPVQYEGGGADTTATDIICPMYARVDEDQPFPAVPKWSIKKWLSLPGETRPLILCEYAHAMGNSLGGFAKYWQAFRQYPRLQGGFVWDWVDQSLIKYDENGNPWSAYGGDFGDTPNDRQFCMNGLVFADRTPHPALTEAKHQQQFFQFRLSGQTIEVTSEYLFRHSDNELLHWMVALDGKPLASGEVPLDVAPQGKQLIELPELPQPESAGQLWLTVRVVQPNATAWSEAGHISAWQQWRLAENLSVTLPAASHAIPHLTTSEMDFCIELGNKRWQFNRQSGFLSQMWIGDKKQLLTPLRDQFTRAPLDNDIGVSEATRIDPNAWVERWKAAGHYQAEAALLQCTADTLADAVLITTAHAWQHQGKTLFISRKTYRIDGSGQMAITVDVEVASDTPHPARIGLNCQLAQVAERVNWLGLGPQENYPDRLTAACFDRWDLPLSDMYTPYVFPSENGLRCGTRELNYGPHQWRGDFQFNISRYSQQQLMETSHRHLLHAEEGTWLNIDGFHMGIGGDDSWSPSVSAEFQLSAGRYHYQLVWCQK

Cytochrome P450 3A4 = Cytochrome P450 3A4 (Homo sapiens, UniProt P08684);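 note: CYP3A4 tested as one member of a cytochrome P450 panel screen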
Sequence of Cytochrome P450 3A4 (P08684 whole entry): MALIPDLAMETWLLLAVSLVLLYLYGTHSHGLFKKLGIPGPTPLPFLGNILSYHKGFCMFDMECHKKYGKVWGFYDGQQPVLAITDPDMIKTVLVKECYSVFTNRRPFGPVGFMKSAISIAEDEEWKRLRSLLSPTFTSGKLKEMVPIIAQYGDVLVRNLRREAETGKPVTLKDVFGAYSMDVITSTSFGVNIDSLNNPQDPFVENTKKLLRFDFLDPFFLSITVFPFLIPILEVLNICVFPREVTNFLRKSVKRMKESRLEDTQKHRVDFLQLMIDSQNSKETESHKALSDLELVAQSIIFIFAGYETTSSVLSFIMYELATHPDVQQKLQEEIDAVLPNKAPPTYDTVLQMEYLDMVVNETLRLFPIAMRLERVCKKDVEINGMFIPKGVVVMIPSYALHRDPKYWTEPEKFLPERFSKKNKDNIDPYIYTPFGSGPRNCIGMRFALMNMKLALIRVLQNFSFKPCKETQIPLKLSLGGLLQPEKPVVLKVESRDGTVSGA

Cytochrome P450 2C9 = Cytochrome P450 2C9 (Homo sapiens, UniProt P11712)
Sequence of Cytochrome P450 2C9 (P11712 whole entry): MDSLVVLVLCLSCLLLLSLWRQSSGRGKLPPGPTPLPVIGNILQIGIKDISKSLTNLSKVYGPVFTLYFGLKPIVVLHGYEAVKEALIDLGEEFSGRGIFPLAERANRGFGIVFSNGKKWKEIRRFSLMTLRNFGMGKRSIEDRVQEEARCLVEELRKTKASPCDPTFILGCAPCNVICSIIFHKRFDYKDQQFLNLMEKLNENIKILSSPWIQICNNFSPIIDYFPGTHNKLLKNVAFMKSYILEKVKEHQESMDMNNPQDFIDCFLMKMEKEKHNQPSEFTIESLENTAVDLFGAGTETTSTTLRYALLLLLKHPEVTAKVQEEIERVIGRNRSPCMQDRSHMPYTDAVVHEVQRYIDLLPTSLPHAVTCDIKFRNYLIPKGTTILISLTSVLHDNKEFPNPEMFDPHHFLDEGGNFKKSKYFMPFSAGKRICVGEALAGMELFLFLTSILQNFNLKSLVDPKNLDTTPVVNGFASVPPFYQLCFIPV

[8] = target: Intestinal-type alkaline phosphatase (Homo sapiens, UniProt P09923); assay: Dose Response confirmation of uHTS hits from a small molecule inhibitors of human intestinal alkaline phosphatase via a luminescent assay. [Related pubchem assays (depositor defined):AID2544, AID2574]; assay type: functional
Sequence of Intestinal-type alkaline phosphatase (P09923 whole entry): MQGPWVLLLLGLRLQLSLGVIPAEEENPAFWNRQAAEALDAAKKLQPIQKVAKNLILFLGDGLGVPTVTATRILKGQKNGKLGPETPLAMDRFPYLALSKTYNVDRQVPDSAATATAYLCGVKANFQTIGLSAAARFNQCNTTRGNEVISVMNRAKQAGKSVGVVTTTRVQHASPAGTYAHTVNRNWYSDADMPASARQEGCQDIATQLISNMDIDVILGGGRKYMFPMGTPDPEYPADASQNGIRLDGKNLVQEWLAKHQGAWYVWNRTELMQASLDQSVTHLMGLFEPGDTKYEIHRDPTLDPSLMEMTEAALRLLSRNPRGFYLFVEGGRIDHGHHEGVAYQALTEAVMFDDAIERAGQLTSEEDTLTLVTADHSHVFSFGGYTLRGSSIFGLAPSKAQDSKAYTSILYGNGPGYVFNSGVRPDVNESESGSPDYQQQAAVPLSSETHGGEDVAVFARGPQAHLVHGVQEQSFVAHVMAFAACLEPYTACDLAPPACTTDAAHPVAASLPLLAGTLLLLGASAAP

Cytochrome P450 2C19 = Cytochrome P450 2C19 (Homo sapiens, UniProt P33261); assay: Cytochrome panel assay with activity outcomes. Panel member name: p450-cyp2c19 Compounds with AC50 equal or less than 10 uM are considered active; assay type: functional; details: read-out: AC50
Sequence of Cytochrome P450 2C19 (P33261 whole entry): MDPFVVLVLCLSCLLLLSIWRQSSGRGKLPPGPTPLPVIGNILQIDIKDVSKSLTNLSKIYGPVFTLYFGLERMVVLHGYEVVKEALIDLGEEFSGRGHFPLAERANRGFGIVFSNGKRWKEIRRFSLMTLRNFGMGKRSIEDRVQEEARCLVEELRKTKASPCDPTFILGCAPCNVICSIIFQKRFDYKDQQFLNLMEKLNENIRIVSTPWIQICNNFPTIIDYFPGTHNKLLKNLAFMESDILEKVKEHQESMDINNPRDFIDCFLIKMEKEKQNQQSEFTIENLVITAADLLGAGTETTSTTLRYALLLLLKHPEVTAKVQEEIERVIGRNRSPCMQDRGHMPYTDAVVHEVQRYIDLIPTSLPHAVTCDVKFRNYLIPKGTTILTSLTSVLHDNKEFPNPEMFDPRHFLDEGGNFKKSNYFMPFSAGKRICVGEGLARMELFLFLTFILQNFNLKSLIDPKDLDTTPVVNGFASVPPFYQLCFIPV

Large T antigen = Large T antigen (Simian virus 40, UniProt P03070); assay type: functional, Betapolyomavirus macacae;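 note: Confirmatory-stage PubChem screen for compounds that inhibit SV40 T antigen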
Sequence of Large T antigen (P03070 whole entry): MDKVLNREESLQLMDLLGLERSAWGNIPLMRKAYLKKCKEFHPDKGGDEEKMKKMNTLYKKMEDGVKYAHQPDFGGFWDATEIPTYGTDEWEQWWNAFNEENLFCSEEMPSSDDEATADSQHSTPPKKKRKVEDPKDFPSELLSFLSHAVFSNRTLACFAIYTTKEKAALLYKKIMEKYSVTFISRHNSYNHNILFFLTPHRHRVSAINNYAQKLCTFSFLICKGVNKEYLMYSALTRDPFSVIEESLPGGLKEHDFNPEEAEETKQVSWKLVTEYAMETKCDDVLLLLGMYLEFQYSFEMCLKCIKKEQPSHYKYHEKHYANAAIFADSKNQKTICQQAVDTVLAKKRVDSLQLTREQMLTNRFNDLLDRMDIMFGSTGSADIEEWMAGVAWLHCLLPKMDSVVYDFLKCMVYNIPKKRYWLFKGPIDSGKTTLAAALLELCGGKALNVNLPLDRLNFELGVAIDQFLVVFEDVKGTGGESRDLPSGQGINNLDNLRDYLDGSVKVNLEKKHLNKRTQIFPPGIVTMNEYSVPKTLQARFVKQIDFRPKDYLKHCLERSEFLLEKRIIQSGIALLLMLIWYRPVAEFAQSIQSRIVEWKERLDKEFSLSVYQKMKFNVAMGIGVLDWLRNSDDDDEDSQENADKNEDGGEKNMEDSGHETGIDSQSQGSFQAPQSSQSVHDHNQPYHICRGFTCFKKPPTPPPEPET

[9] = Luminescence Cell-Based Dose Retest to Confirm Inhibitors of Cancer Stem Cells. [Related pubchem assays (depositor defined):AID2717, AID2721]; assay type: functional; details: Homo sapiens
[10] = target: Neurotensin receptor type 1 (Homo sapiens, UniProt P30989); assay type: functional;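 note: Image-based confirmatory dose-response assay measuring agonist activity at NTR1; NTR1-expressing U2OS osteosarcoma cells imaged for beta-arrestin GFP spot formation; agonist potency where compounds increase beta-arrestin recruitment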
Sequence of Neurotensin receptor type 1 (P30989 whole entry): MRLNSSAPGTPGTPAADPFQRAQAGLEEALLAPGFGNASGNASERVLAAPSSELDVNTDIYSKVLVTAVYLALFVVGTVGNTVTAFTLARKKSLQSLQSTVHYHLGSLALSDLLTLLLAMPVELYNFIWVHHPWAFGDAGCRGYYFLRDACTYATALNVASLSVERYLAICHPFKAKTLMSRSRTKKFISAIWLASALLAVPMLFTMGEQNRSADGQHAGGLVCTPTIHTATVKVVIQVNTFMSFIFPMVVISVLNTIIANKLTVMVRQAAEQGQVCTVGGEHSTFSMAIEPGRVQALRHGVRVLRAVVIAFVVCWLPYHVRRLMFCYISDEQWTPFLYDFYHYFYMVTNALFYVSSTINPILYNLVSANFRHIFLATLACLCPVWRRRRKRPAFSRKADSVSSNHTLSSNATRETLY

[11] = target: T4, Histone-lysine N-methyltransferase NSD2 (Homo sapiens, UniProt O96028); assay type: biochemical
T4 sequence (O96028 whole entry): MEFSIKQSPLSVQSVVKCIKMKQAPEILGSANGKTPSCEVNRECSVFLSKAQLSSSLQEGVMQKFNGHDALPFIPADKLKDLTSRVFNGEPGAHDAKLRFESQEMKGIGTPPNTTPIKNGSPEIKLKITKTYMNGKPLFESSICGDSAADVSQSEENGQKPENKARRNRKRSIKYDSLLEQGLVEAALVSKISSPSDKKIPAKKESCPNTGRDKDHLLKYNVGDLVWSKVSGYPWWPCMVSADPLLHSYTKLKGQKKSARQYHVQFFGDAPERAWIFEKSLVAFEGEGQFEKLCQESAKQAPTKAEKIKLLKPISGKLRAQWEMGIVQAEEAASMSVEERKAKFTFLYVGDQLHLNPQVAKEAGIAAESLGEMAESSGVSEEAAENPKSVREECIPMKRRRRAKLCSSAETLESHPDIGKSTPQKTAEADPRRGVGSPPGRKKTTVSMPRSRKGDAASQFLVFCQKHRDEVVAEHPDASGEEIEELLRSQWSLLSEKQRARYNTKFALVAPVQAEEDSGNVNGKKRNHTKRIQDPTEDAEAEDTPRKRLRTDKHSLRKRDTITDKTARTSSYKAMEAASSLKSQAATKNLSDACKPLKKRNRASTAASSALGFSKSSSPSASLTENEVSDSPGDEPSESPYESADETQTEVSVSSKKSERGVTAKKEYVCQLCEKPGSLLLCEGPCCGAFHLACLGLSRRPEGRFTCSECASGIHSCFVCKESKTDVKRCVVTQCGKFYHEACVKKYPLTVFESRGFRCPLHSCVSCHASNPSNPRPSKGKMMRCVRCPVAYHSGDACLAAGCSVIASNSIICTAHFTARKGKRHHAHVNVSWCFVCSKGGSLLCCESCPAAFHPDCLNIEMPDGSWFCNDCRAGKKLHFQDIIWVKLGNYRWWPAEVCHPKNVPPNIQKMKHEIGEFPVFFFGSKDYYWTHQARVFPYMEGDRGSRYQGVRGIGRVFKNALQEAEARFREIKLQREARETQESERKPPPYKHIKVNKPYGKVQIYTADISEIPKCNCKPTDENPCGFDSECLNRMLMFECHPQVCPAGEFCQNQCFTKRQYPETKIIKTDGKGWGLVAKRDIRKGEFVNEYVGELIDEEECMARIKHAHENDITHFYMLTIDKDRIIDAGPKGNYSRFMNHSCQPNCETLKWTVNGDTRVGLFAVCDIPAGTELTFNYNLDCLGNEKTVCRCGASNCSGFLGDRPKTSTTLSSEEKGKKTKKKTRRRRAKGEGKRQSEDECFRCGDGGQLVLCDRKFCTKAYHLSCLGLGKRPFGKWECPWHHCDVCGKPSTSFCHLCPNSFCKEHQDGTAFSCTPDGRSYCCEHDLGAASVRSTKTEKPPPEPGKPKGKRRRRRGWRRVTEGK

Cytochrome P450 1A2 = target: T5, Cytochrome P450 1A2 (Homo sapiens, UniProt P05177);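 note: PubChem cytochrome P450 panel assay, CYP1A2 panel member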
T5 sequence (P05177 whole entry): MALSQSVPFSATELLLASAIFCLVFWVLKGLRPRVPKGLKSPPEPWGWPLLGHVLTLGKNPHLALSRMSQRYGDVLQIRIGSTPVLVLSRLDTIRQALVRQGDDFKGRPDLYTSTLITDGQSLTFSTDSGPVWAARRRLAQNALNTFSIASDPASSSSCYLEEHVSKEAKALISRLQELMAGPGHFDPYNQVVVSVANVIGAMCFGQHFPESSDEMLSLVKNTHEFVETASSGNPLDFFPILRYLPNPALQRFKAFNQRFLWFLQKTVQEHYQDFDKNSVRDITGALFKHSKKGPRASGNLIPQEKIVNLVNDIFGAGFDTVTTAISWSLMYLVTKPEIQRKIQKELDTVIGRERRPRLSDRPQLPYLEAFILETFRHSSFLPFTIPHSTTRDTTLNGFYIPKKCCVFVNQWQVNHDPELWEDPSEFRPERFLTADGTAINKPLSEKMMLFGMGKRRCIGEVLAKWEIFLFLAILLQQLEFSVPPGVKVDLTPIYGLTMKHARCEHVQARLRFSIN

[12] = target: Dual specificity tyrosine-phosphorylation-regulated kinase 1A (Rattus norvegicus, UniProt Q63470); assay type: biochemical, Homo sapiens
[13] = THP-1 cell cytotoxicity, dose response, cytotoxicity control for non-replicating M. tuberculosis project (AID 489025); assay type: functional
cells = assay type: functional
[14] = tested on: Streptococcus sp. 'group A'; assay: Streptococcus pyogenes SK(-)GAS viability under kanamycin – luminescence, BacTiterGlo, confirmation, counter-screen for streptokinase expression inhibitor project, dose response (AID 1900); assay type: functional, organism-based
Streptokinase A = target: T6, Streptokinase A (Streptococcus pyogenes serotype M1, UniProt P10520); assay: viability-normalized secreted streptokinase activity reduction – plasminogen activation absorbance, OD405, dose response (AID 1914); assay type: functional, Streptococcus pyogenes M1 GAS;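 note: secreted streptokinase activity via plasminogen activation per viability signal from cell pellet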
T6 sequence (P10520 whole entry): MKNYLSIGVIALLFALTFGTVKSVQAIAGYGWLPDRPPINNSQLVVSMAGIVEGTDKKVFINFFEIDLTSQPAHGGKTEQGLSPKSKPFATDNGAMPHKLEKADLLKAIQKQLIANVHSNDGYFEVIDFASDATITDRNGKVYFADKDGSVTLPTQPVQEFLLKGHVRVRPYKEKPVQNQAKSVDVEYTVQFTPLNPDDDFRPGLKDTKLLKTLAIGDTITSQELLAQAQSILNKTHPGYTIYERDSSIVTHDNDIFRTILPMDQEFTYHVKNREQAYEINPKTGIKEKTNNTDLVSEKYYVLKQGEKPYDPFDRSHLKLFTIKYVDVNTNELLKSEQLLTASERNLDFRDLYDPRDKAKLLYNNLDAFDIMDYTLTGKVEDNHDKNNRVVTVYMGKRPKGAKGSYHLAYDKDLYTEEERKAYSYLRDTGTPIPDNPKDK

Streptococcus = assay: GAS UMAA2166 growth inhibition – luminescence, BacTiterGlo, counter-screen for streptokinase expression inhibitor project, dose response (AID 1915); assay type: functional, organism-based;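 note: potency for reduction of bacterial viability or growth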
[15] = target: Heat shock protein HSP 90-alpha (Homo sapiens, UniProt P07900); assay type: functional, organism-based

T1 sequence (P98170 whole entry): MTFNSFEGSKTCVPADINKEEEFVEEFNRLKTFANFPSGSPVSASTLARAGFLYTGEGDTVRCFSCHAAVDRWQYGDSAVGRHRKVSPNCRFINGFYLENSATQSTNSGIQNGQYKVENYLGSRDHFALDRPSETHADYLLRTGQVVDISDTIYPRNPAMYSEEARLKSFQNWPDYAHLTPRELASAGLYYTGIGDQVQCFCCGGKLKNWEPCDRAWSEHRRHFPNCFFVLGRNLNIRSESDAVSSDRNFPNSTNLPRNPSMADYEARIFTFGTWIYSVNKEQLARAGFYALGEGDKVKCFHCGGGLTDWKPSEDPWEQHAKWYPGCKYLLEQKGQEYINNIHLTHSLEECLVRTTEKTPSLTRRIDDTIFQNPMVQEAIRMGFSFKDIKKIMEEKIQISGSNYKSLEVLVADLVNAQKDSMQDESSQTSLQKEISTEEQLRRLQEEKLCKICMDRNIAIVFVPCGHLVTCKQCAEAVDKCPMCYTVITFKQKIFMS

S=C(Nc1ccc(Br)cc1)N1CCn2cccc2C1c1cccnc1 (stereo unspecified)
IC50 [1]: > 100 µM (inactive)
IC50 [2]: > 100 µM (not active)
EC50 [3]: 0.605 µM (active)
EC50 [4]: > 60 µM (not active)

Cn1c(NCc2ccccc2Cl)nc2ccccc21
IC50 (HEK293): > 67.6 µM (inactive)
IC50 [5]: > 67.6 µM (inactive)

CS(=O)(=O)N1N=C(c2ccccc2)CC1c1ccc2c(c1)OCO2 (stereo unspecified)
IC50 [6]: 1.42 µM (active)

COc1ccccc1C1SCCN1S(=O)(=O)c1cccc(C(F)(F)F)c1 (stereo unspecified)
IC50 [1]: > 100 µM (inactive)
IC50 [2]: > 100 µM (not active)

Cc1ccc(C(=C2C3C=CC2C2C(=O)NC(=O)C32)c2ccc(C)cc2)cc1 (stereo unspecified)
IC50 [7]: > 66.6 µM (inactive)
IC50 (Beta-galactosidase): > 66.6 µM (inactive)

CC(C)NC(=O)N1CCC2(CC1)CCN(C(=O)c1cc(C(F)(F)F)cc(C(F)(F)F)c1)CC2
AC50 (Cytochrome P450 3A4): inconclusive
AC50 (Cytochrome P450 2C9): inconclusive

COc1ccc(-c2cc3nc(C)cc(C)n3n2)cc1
IC50 (HEK293): > 67.5 µM (inactive)
IC50 [5]: > 67.5 µM (inactive)

COc1cc(/C=C/C(=O)OCC(=O)NC(=O)NC2CCCCC2)ccc1OC(F)F
IC50 [8]: > 100 µM (inactive)

Cc1c2c(nc3c(C(=O)NC4CCCC4)cnn13)CCCC2
AC50 (Cytochrome P450 2C19): 39.8 µM (inconclusive)
AC50 (Cytochrome P450 3A4): inconclusive

COc1ccccc1C1CN(c2ccccc2)N=C1c1cccs1 (stereo unspecified)
IC50 [8]: > 100 µM (inactive)

COc1cc(/C=C2\C(=O)ON=C2c2ccc(Cl)cc2)ccc1O
IC50 (Large T antigen): 14.6 µM (active)
AC50 [9]: 1.76 µM (active)
EC50 [10]: 12.1 µM (active)
AC50 [11]: > 20 µM (inactive)

O=C(c1cc(-c2ccccc2Cl)on1)N1CCN(C(=O)c2ccco2)CC1
AC50 (Cytochrome P450 2C19): 25.1 µM (inconclusive)
AC50 (Cytochrome P450 1A2): 25.1 µM (inconclusive)
AC50 (Cytochrome P450 3A4): inconclusive
AC50 (Cytochrome P450 2C9): inconclusive

C=C(C)[C@@H](O)COc1c2ccoc2cc2oc(=O)ccc12
AC50 [12]: 9.08 µM (active)

CC1=C(/C=C/C(C)=N\NC(=O)c2ccncc2)C(C)(C)CCC1
CC50 [13]: > 40 µM (active)
IC50 [7]: > 66.6 µM (inactive)
IC50 (Beta-galactosidase): > 66.6 µM (inactive)
IC50 (cells): 0.61 µM (active)

Oc1ccc(/C=N/N(Cc2ccccc2)c2ccccc2)cc1
EC50 [14]: 7.47 µM (active)
EC50 (Streptokinase A): > 150 µM (not active)
EC50 (Streptococcus): 9.38 µM (active)
AC50 [15]: 9.12 µM (active)
